Results taken from ChEMBL document CHEMBL4342421, “Current scenario of tetrazole hybrids for antibacterial activity” (Eur J Med Chem, 2019).
Converted amounts (≈) assume the structure as drawn. Each block holds one compound with its values, some of them ahead of it.

Legend:
[1] = tested on: Staphylococcus aureus; test: Antimicrobial activity against Staphylococcus aureus assessed as zone of inhibition at 5 mg/ml after 24 to 48 hrs by well diffusion method; format: functional; conditions: read-out: IZ
[2] = tested on: Bacillus subtilis; test: Antimicrobial activity against Bacillus subtilis assessed as zone of inhibition at 5 mg/ml after 24 to 48 hrs by well diffusion method; format: functional; conditions: read-out: IZ
[3] = tested on: Proteus mirabilis; test: Antimicrobial activity against Proteus mirabilis; format: functional
[4] = tested on: Staphylococcus aureus; test: Antimicrobial activity against Staphylococcus aureus ATCC 25923 assessed as zone of inhibition at 100 ug/ml after 24 hrs by disc diffusion method; format: functional; conditions: ATCC 25923, 24 h, read-out: IZ
[5] = tested on: Bacillus subtilis; test: Antimicrobial activity against Bacillus subtilis; format: functional
[6] = tested on: Salmonella typhimurium; test: Antimicrobial activity against Salmonella typhimurium; format: functional, Salmonella enterica subsp. enterica serovar Typhimurium; conditions: Salmonella enterica
[7] = tested on: Streptococcus pneumoniae; test: Antimicrobial activity against Streptococcus pneumoniae; format: functional
[8] = tested on: Bacillus thuringiensis; test: Antimicrobial activity against Bacillus thuringiensis; format: functional
[9] = tested on: Proteus vulgaris; test: Antimicrobial activity against Proteus vulgaris; format: functional
[10] = tested on: Prescottella equi; test: Antimicrobial activity against Rhodococcus equi; format: functional; conditions: Rhodococcus (subgen. Prescottella) equi
[11] = tested on: Candida albicans; test: Antifungal activity against Candida albicans; format: functional
[12] = tested on: Candida tropicalis; test: Antifungal activity against Candida tropicalis; format: functional
[13] = tested on: Pseudomonas aeruginosa; test: Antimicrobial activity against Pseudomonas aeruginosa; format: functional
[14] = tested on: Staphylococcus aureus; test: Antimicrobial activity against Staphylococcus aureus; format: functional
[15] = tested on: Escherichia coli; test: Antimicrobial activity against Escherichia coli; format: functional
[16] = tested on: Pichia kudriavzevii; test: Antifungal activity against Candida krusei
[17] = tested on: Nakaseomyces glabratus; test: Antifungal activity against Candida glabrata; format: functional
[18] = tested on: Klebsiella pneumoniae; test: Antimicrobial activity against Klebsiella pneumoniae ATCC 700603 assessed as zone of inhibition at 100 ug/ml after 24 hrs by disc diffusion method; format: functional; conditions: ATCC 700603, 24 h, read-out: IZ
[19] = tested on: Pseudomonas aeruginosa; test: Antimicrobial activity against Pseudomonas aeruginosa after 24 hrs by agar disk diffusion method; format: functional
[20] = tested on: Bacillus cereus; test: Antimicrobial activity against Bacillus cereus; format: functional
[21] = tested on: Proteus mirabilis; test: Antimicrobial activity against Proteus mirabilis after 24 hrs by agar disk diffusion method; format: functional
[22] = tested on: Aspergillus niger; test: Antifungal activity against Aspergillus niger; format: functional
[23] = tested on: Klebsiella pneumoniae; test: Antimicrobial activity against Klebsiella pneumoniae after 24 hrs by agar disk diffusion method; format: functional
[24] = tested on: Escherichia coli; test: Antimicrobial activity against Escherichia coli after 24 hrs by agar disk diffusion method; format: functional
[25] = tested on: Escherichia coli; test: Antimicrobial activity against Escherichia coli assessed as zone of inhibition at 5 mg/ml after 24 to 48 hrs by well diffusion method; format: functional; conditions: read-out: IZ
[26] = tested on: Pseudomonas aeruginosa; test: Antimicrobial activity against Pseudomonas aeruginosa assessed as zone of inhibition at 5 mg/ml after 24 to 48 hrs by well diffusion method; format: functional; conditions: read-out: IZ
[27] = tested on: Klebsiella pneumoniae; test: Antimicrobial activity against Klebsiella pneumoniae assessed as zone of inhibition at 5 mg/ml; format: functional; conditions: read-out: IZ
[28] = tested on: Escherichia coli; test: Antimicrobial activity against Escherichia coli assessed as zone of inhibition at 5 mg/ml; format: functional; conditions: read-out: IZ
[29] = tested on: Pseudomonas aeruginosa; test: Antimicrobial activity against Pseudomonas aeruginosa assessed as zone of inhibition at 5 mg/ml; format: functional; conditions: read-out: IZ
[30] = tested on: Staphylococcus aureus; test: Antimicrobial activity against Staphylococcus aureus assessed as zone of inhibition at 5 mg/ml; format: functional; conditions: read-out: IZ
[31] = tested on: Staphylococcus aureus; test: Antimicrobial activity against Staphylococcus aureus assessed as zone of inhibition at 0.001 mol/cm3; format: functional
[32] = tested on: Bacillus cereus; test: Antimicrobial activity against Bacillus cereus assessed as zone of inhibition at 0.001 mol/cm3; format: functional
[33] = tested on: Escherichia coli; test: Antimicrobial activity against Escherichia coli assessed as zone of inhibition at 0.001 mol/cm3; format: functional
[34] = tested on: Escherichia coli; test: Antimicrobial activity against Escherichia coli assessed as zone of inhibition at 10 ug/ml; format: functional; conditions: read-out: IZ
[35] = tested on: Bacillus subtilis; test: Antimicrobial activity against Bacillus subtilis assessed as zone of inhibition at 10 ug/ml; format: functional; conditions: read-out: IZ
[36] = tested on: Lactococcus lactis; test: Antimicrobial activity against Streptococcus lactis assessed as zone of inhibition at 10 ug/ml; format: functional; conditions: read-out: IZ
[37] = Antifungal activity against Rhodotorula ingeniosa assessed as zone of inhibition at 10 ug/ml; format: functional; conditions: Sampaiozyma ingeniosa; read-out: IZ
[38] = tested on: Penicillium; test: Antifungal activity against Penicillium assessed as zone of inhibition at 10 ug/ml; format: functional; conditions: read-out: IZ
[39] = tested on: Aspergillus niger; test: Antifungal activity against Aspergillus niger assessed as zone of inhibition at 10 ug/ml; format: functional; conditions: read-out: IZ
[40] = tested on: Streptomyces; test: Antimicrobial activity against Streptomyces assessed as zone of inhibition at 10 ug/ml; format: functional; conditions: read-out: IZ
[41] = tested on: Pseudomonas; test: Antimicrobial activity against Pseudomonas assessed as zone of inhibition at 10 ug/ml; format: functional; conditions: read-out: IZ
[42] = tested on: Candida albicans; test: Antifungal activity against Candida albicans assessed as zone of inhibition at 10 ug/ml; format: functional; conditions: read-out: IZ

MIC [3]: 0.063 to 8 µg/mL (≈ 0.188 to 23.9 µM)
MIC [5]: 0.063 to 8 µg/mL (≈ 0.188 to 23.9 µM)
MIC [6]: 0.063 to 8 µg/mL (≈ 0.188 to 23.9 µM)
MIC [7]: 0.063 to 8 µg/mL (≈ 0.188 to 23.9 µM)
MIC [8]: 0.063 to 8 µg/mL (≈ 0.188 to 23.9 µM)
MIC [9]: 0.063 to 8 µg/mL (≈ 0.188 to 23.9 µM)
MIC [10]: 0.063 to 8 µg/mL (≈ 0.188 to 23.9 µM)
Structure (SMILES): CC1(C)S[C@@H]2[C@H](NC(=O)Cc3ccccc3)C(=O)N2[C@H]1C(=O)O [PENICILLIN G]
zone of inhibition at 5000 µg/mL [1]: 24.6 mm
zone of inhibition at 5000 µg/mL [2]: 26.2 mm
zone of inhibition at 100 µg/mL [4]: 10 to 24 mm

MIC [11]: 16 to 64 µg/mL (≈ 22.5 to 90 µM)
MIC [12]: 16 to 64 µg/mL (≈ 22.5 to 90 µM)
MIC [13]: 16 to 64 µg/mL (≈ 22.5 to 90 µM)
MIC [14]: 16 to 64 µg/mL (≈ 22.5 to 90 µM)
MIC [15]: 16 to 64 µg/mL (≈ 22.5 to 90 µM)
MIC [5]: 16 to 64 µg/mL (≈ 22.5 to 90 µM)
MIC [16]: 16 to 64 µg/mL (≈ 22.5 to 90 µM)
MIC [17]: 16 to 64 µg/mL (≈ 22.5 to 90 µM)
Structure (SMILES): Fc1cc2nc(SCc3ccc(-c4ccccc4-c4nnnn4C(c4ccccc4)(c4ccccc4)c4ccccc4)cc3)[nH]c2cc1-n1ccnc1

Structure (SMILES): CC1(C)S[C@@H]2[C@H](NC(=O)[C@H](N)c3ccccc3)C(=O)N2[C@H]1C(=O)O [AMPICILLIN]
zone of inhibition at 100 µg/mL [18]: 15 mm
MIC [19]: 6.25 µg/mL (≈ 17.9 µM)
MIC [20]: 6.25 µg/mL (≈ 17.9 µM)
MIC [11]: 2 to 250 µg/mL (≈ 5.72 to 715 µM)
MIC [21]: 6.25 µg/mL (≈ 17.9 µM)
MIC [12]: 2 to 64 µg/mL (≈ 5.72 to 183 µM)
MIC [13]: 2 to 250 µg/mL (≈ 5.72 to 715 µM)
MIC [22]: 100 to 250 µg/mL (≈ 286 to 715 µM)
MIC [14]: 2 to 250 µg/mL (≈ 5.72 to 715 µM)
MIC [15]: 2 to 250 µg/mL (≈ 5.72 to 715 µM)
zone of inhibition at 100 µg/mL [4]: 16.5 mm
MIC [5]: 2 to 64 µg/mL (≈ 5.72 to 183 µM)
MIC [16]: 2 to 64 µg/mL (≈ 5.72 to 183 µM)
MIC [23]: 6.25 µg/mL (≈ 17.9 µM)
MIC [17]: 2 to 64 µg/mL (≈ 5.72 to 183 µM)
MIC [24]: 6.25 µg/mL (≈ 17.9 µM)

Structure (SMILES): Cc1c(-c2cc(-c3ccc(-c4cc(-c5cnn(-c6ccccc6)c5C)n5nnnc5n4)cc3)nc3nnnn23)cnn1-c1ccccc1
zone of inhibition at 5000 µg/mL [1]: 8.1 to 9.9 mm
zone of inhibition at 5000 µg/mL [25]: 8.1 to 9.9 mm
zone of inhibition at 5000 µg/mL [26]: 8.1 to 9.9 mm
zone of inhibition at 5000 µg/mL [2]: 8.1 to 9.9 mm

Structure (SMILES): CCn1cc(C(=O)O)c(=O)c2cc(F)c(N3CCN(C)CC3)cc21 [PEFLOXACIN]
zone of inhibition at 5000 µg/mL [27]: 28 to 36 mm
zone of inhibition at 5000 µg/mL [28]: 28 to 36 mm
zone of inhibition at 5000 µg/mL [29]: 28 to 36 mm
zone of inhibition at 5000 µg/mL [30]: 28 to 36 mm

Structure (SMILES): Cc1c(-c2cc(-c3ccccc3)nc3nnnn23)cnn1-c1ccccc1
zone of inhibition at 5000 µg/mL [1]: 13.7 to 18.6 mm
zone of inhibition at 5000 µg/mL [25]: 13.7 to 18.6 mm
zone of inhibition at 5000 µg/mL [26]: 13.7 to 18.6 mm
zone of inhibition at 5000 µg/mL [2]: 13.7 to 18.6 mm

Structure (SMILES): Cc1ccc2nc(C)c(Cn3cc(CSc4nnnn4-c4ccccc4)nn3)cc2c1
zone of inhibition at 5000 µg/mL [27]: 11 to 19 mm
zone of inhibition at 5000 µg/mL [28]: 11 to 19 mm
zone of inhibition at 5000 µg/mL [29]: 11 to 19 mm
zone of inhibition at 5000 µg/mL [30]: 11 to 19 mm

Structure (SMILES): Cc1c(C(=O)c2ccccc2)sc(-n2cnnn2)c1C(=O)O
inhibition zone (IZ) [31]: 17 - 24 mm
inhibition zone (IZ) [32]: 17 - 24 mm
inhibition zone (IZ) [33]: 17 - 24 mm

Structure (SMILES): C[C@H]1COc2c(N3CCN(C)CC3)c(F)cc3c(=O)c(C(=O)O)cn1c23.C[C@H]1COc2c(N3CCN(C)CC3)c(F)cc3c(=O)c(C(=O)O)cn1c23.O [LEVOFLOXACIN]
inhibition zone (IZ) [31]: 28 - 30 mm
inhibition zone (IZ) [32]: 28 - 30 mm
inhibition zone (IZ) [33]: 28 - 30 mm

Structure (SMILES): CC(=O)OC[C@H]1O[C@H](n2nnnc2Cn2nnc3ccccc32)[C@H](OC(C)=O)[C@@H](OC(C)=O)[C@@H]1OC(C)=O
zone of inhibition at 10 µg/mL [34]: 15 to 17 mm
zone of inhibition at 10 µg/mL [35]: 15 to 17 mm
zone of inhibition at 10 µg/mL [36]: 15 to 17 mm
zone of inhibition at 10 µg/mL [37]: 15 to 17 mm
zone of inhibition at 10 µg/mL [38]: 15 to 17 mm
zone of inhibition at 10 µg/mL [39]: 15 to 17 mm
zone of inhibition at 10 µg/mL [40]: 15 to 17 mm
zone of inhibition at 10 µg/mL [41]: 15 to 17 mm
zone of inhibition at 10 µg/mL [42]: 15 to 17 mm

Structure (SMILES): CCOC(=O)c1c(-n2cnnn2)sc(C(=O)c2ccccc2)c1C
inhibition zone (IZ) [31]: 22 - 24 mm
inhibition zone (IZ) [32]: 22 - 24 mm
inhibition zone (IZ) [33]: 22 - 24 mm
